Results published in US20210401867A1, “PHOTOSENSITIZERS AND METHOD OF TREATING CANCER USING THE SAME” (Cheng-Wen Wu, priority 2018, published 2021).

What was measured:
FaDu cells [1] = test: in vitro cell viability of FaDu cells; format: cell-based, human; conditions: for cytotoxicity: viability and colony forming
FaDu cells [2] = test: colony forming assay of FaDu cells; format: cell-based, human
Method: In the following examples, FaDu cells are used in cell viability tests and colony forming assays. FaDu cells (ATCC HTB-43) is a human head-and-neck cell line with squamous phenotype. FaDu cells used in the following examples are cultured in DMEM medium supplemented with 10% fetal bovine serum (FBS) and 1% penicillin/streptomycin, in a humidified incubator maintained at 37° C. and 5% CO2.
Referring to FIGS. 9A-C, an in vitro cell viability chart of FaDu cells when treated with BrdU alone, NR alone, and BrdU and NR, is provided in accordance with an exemplary embodiment of the present disclosure. NR treatments in FIGS. 9A, 9B, and 9C are similar with the experiment procedures for FIG. 6. In samples where FaDu cells are treated with BrdU and NR, FaDu cells are incubated with BrdU for 24 hours before irradiated with NR. Referring to FIG. 9B, a colony forming assay result of FaDu cells after the treatments described in […], is provided in accordance with an exemplary embodiment of the present disclosure. The colony forming assay in FIG. 9B are proceeded as following: FaDu cells treated by different regimens are grouped and seeded in 6-well-plates with 1000 cells in each of the well and cultured for 14 days; the culture medium was replaced every 3 to 4 days; in the end of the experiment, the cells are washed twice with PBS and fixed with 4% paraformaldehyde for 15 minutes and stained with 0.1% crystal violet. Referring to FIG. 9C, a quantitative result of the colony forming assay in FIG. 9B is provided in accordance with an exemplary embodiment of the present disclosure. In FIG. 9C, the results of the colony forming assay are quantified by microscopic examination by stereomicroscope.

For dibromocurcumin [DBC], the “cytotoxicity to FaDu cells” value (FaDu cells [1]; 20 μM of DBC combined with 1 Gy of NR) was “significantly higher than using DBC or NR alone”, the “cytotoxicity of the combination with NR” value (FaDu cells [1]; DBC and NR, FaDu cells) was “synergistic cytotoxicity” and the cytotoxicity (FaDu cells [1]; DBC dosage less than 20 μM) was “little cytotoxicity”. The cytotoxicity (FaDu cells [1]; DBC dosage more than 120 μM) was “efficiently kills FaDu cells”, the cell viability (FaDu cells [1]; FaDu cells, 80 μM DBC for 24 hours, Day 7) was “less than 50%” and the “colony forming assay versus DBC or NR alone” value (FaDu cells [2]; DBC combined with 1 Gy of 14 keV NR) was “same result”. For the same substance, the colony forming inhibition (FaDu cells [2]; FaDu cells, 40 μM DBC) was “about 50%”.
